A value given as a limit tells only on which side of the number the result lay.

What all share (assay type): cell-based
One experiment concerns IL-5. Kind of experiment: Allergen-driven cytokine assay using fresh human PBMCs from atopic volunteers (IL-5). Conditions: PBMC, PBMCs from at least two allergic donors, 10 μg/ml Timothy grass antigen, compared to the allergen control, read-out: concentration at which ≧50% reduction of IL-5 production observed. Here is the method:
(§1) Allergen-Driven Cytokine Assay Using Fresh Human Peripheral Blood Mononuclear Cells (PBMCs) from Atopic Volunteers
(§2) An assay based on co-culture of atopic human donor derived peripheral blood mononuclear cells (PBMCs) with allergen and test compounds was developed. After 5-6 days culture, cell supernatants were assayed for a range of cytokines.
(§3) Compounds were dissolved in DMSO, then serially diluted in growth medium (RPMI 1640 medium supplemented with 100 U/ml penicillin G, 100 μg/ml streptomycin, 10 mM L-glutamine) to give 4× the required concentration range in the presence of 0.04% DMSO. Each compound was assayed in triplicate at all concentrations.
(§4) Defibrinated human blood from volunteers known to be allergic to Timothy grass was centrifuged at 2500 rpm for 15 minutes. The upper layer of serum was collected and heat-inactivated at 56° C. for 30 minutes (HI-autologous serum). The lower layer of cells was resuspended in 50 ml PBS (+Ca +Mg), 25 ml diluted blood were overlaid onto 20 ml Lymphoprep in 50 ml tubes then centrifuged at 2500 rpm for 20 minutes at RT. The band at the serum/Lymphoprep interface was carefully removed. The collected cells were washed with PBS and re-suspended at 4×10^6/ml in growth medium with HI-autologous serum. PBMCs were seeded at 0.4×10^6 cells/well in flat-bottomed 96 well plates in the presence of 10 μg/ml Timothy grass antigen (Alk Abello) and test compounds at appropriate concentrations in a total volume of 200 ul.
(§5) Plates were incubated at 37° C. in 5% CO2 for up to 6 days. The cell medium from each well was harvested and stored at −20° C. prior to analysis. Cytokines and chemokines in supernatants were detected using Meso Scale Discovery 10 spot plates for Human TH1/Th2 cytokines.

The test system of a further experiment is TNF-α. Kind of experiment: Induction of TNF-α using fresh human PBMCs. As to conditions: PBMC, 24 hr incubation, relative to 2 μM resiquimod control, read-out: mean pEC50 for induction of TNF-α (converted). The procedure: (§6) Assay for the Induction of Interferon-α and TNF-α Using Fresh Human Peripheral Blood Mononuclear Cells (PBMCs)
(§7) Compounds were dissolved and serially diluted in DMSO to give 100× the required concentration range using a Biomek 2000. 1 ul of test compound was transferred into 96-well tissue culture plates using a Biomek FX. Each compound was assayed in duplicate for each donor. Each plate contained a dilution series of the TLR7/8 agonist resiquimod as standard and Column 11 contained 1 μl of 200 μM resiquimod (giving a 2 μM final concentration, used to define the approximate maximal response to resiquimod).
(§8) Blood samples from two human donors were collected into sodium heparin (10 U/ml). 25 ml volumes of whole blood were overlaid onto 15 mls Histopaque in Leucosep tubes which were centrifuged at 800 g for 20 min and the band at the plasma/histopaque interface carefully removed. The collected cells were centrifuged at 2500 rpm for 10 min. and the pellet resuspended in 10 ml of media (RPMI 1640 (Low endotoxin) supplemented with 10% v/v foetal calf serum (FCS, low endotoxin) 100 U/ml penicillin G, 100 μg/ml streptomycin, 10 mM L-glutamine and 1× non-essential amino acids). A 1:20 dilution of the cells was prepared using trypan blue & the cells counted using a haemocytometer. The PBMCs were diluted to give a final concentration of 2×10^6/ml and 100 ul of this cells suspension was added to wells containing 1 μl of diluted test compound.
(§9) The cell preparations were incubated for 24 hr. (37° C., 95% air, 5% CO2) after which a sample of the supernatant was removed using the Biomek FX and assayed for both IFN-α and TNF-α using the MSD (Mesoscale Discovery) electrochemiluminescence assay platform. The IFN-α assay was carried out similarly to that described above. The TNF-α assay was carried out as per kit instructions (Cat No K111BHB).
(§10) Cytokine released was expressed as a percentage of the 2 μM resiquimod control (column 11). This percentage was plotted against compound concentration and the pEC50 for the response determined by non-linear least squares curve fitting. For the IFN-α responses generally a 4 parameter logistic model was selected. For the TNF responses where a clear maximum response was obtained (i.e. a well defined plateau in the response was observed) then a 4 parameter model was generally used. If the upper asymptote of the curve wasn't well defined then the curve fitting was generally constrained to a maximal response of 100% (i.e., to the response to 2 μM resiquimod) or to the response of the highest concentration tested if this was greater than the resiquimod response. Some curves were bell shaped for one or both cytokines and the cytokine data on the down slope of the bell shaped response (i.e. concentrations above those giving the maximal response) were generally excluded from the fit, usually with the exception of the concentration immediately above the peak response. Curve fitting thus concentrated on the up slope of the dose response curve.

For experiment [1], the system named is Interferon-α. In words: Induction of Interferon-α using cryopreserved human PBMCs. As to conditions: PBMC, 24 h incubation, normalised to 1 uM resiquimod, read-out: mean pEC50 for induction of IFN-α (converted). Summed up: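 Cryopreserved healthy-donor PBMCs at 1×10^6 cells/ml in RPMI/10% FCS with 1000 units/ml IFN-gamma, exposed 24 h at 37 °C to 11-point two-fold compound dilutions. Supernatant IFN-α quantified by MSD electrochemiluminescence immunoassay; pEC50 from 4-parameter fit, normalised to 1 uM resiquimod and DMSO.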

The test system of the next experiment is IL-13. Kind of experiment: Allergen-driven cytokine assay using fresh human PBMCs from atopic volunteers (IL-13). Conditions: PBMC, PBMCs from at least two allergic donors, 10 μg/ml Timothy grass antigen, compared to the allergen control, read-out: concentration at which ≧50% reduction of IL-13 production observed. The procedure: as §1, §2, §3, §4, §5
For experiment [2], the system named is Interferon-α. In words: Induction of Interferon-α using fresh human PBMCs. Conditions: PBMC, 24 hr incubation, relative to 2 μM resiquimod control, read-out: mean pEC50 for induction of IFN-α (converted). The procedure: as §6, §7, §8, §9, §10

As for `CCC[C@H](C)Oc1nc(N)c2[nH]c(=O)n(CCC3CCN(C(C)C)CC3)c2n1` [Example 92, 6-Amino-2-{[(1S)-1-methylbutyl]oxy}-9-{2-[1-(1-methylethyl)-4-piperidinyl]ethyl}-7,9-dihydro-8H-purin-8-one], the IC50 with IL-5 was at most 8 nM; in the experiment on IL-13, at most 40 nM. In addition, the EC50 in the experiment with TNF-α is over 1000 nM; in the experiment on Interferon-α [1] it was under 1580 nM; with Interferon-α [2] it was under 10 nM.
For `CCCCOc1nc(N)c2[nH]c(=O)n(CCCCC3CCN(CC)CC3)c2n1` [Example 10, 6-Amino-2-(butyloxy)-9-[4-(1-ethyl-4-piperidinyl)butyl]-7,9-dihydro-8H-purin-8-one], in that order: at most 8 nM, at most 40 nM, over 1000 nM, under 1580 nM and under 10 nM.
With `CCC[C@H](C)Oc1nc(N)c2[nH]c(=O)n(CCCCC3CCN(CC)CC3)c2n1` [Example 119, 6-Amino-9-[4-(1-ethyl-4-piperidinyl)butyl]-2-{[(1S)-1-methylbutyl]oxy}-7,9-dihydro-8H-purin-8-one], the EC50 with TNF-α was over 31.6 nM; in the experiment with Interferon-α [1], under 1580 nM; with Interferon-α [2] it was under 0.316 nM.
As for `CCCCOc1nc(N)c2[nH]c(=O)n(CCCC3CCN(C4CCCCC4)CC3)c2n1` [Example 102, 6-Amino-2-(butyloxy)-9-[3-(1-cyclohexyl-4-piperidinyl)propyl]-7,9-dihydro-8H-purin-8-one], the EC50 in the experiment on TNF-α was over 1000 nM; in the experiment on Interferon-α [1], under 1580 nM; with Interferon-α [2], under 10 nM.
Taken in the same sequence, the figures for `CCCCOc1nc(N)c2[nH]c(=O)n(CCC3CCCNC3)c2n1` (centres unmarked) [Example 29, 6-amino-2-(butyloxy)-9-[2-(3-piperidinyl)ethyl]-7,9-dihydro-8H-purin-8-one] were over 1000 nM, under 1580 nM and under 100 nM.
For `CCCCOc1nc(N)c2[nH]c(=O)n(CC3CCN(CC)CC3)c2n1` [Example 7], in that order: over 1000 nM, under 1580 nM and under 100 nM.
With `CCCCOc1nc(N)c2[nH]c(=O)n(CCCC3CCN(CCCC)CC3)c2n1` [Example 96, 6-Amino-2-(butyloxy)-9-[3-(1-butyl-4-piperidinyl)propyl]-7,9-dihydro-8H-purin-8-one], the EC50 was over 1000 nM in the experiment with TNF-α, under 1580 nM in the experiment on Interferon-α [1] and under 1 nM in the experiment with Interferon-α [2].
For the compound `CCCCOc1nc(N)c2[nH]c(=O)n(CCC3CCN(CC)CC3)c2n1` [Example 8], the IC50 is at most 8 nM in the experiment with IL-5 and at most 40 nM with IL-13. The EC50 in the experiment with TNF-α is over 1000 nM; in the experiment on Interferon-α [1], under 1580 nM; in the experiment on Interferon-α [2], under 100 nM.
Turning to `CCCCOc1nc(N)c2[nH]c(=O)n(CCC3CCCN(C(C)C)C3)c2n1` (centres unmarked) [Example 32, 6-Amino-2-(butyloxy)-9-{2-[1-(1-methylethyl)-3-piperidinyl]ethyl}-7,9-dihydro-8H-purin-8-one], the EC50 in the experiment with TNF-α is over 1000 nM; in the experiment with Interferon-α [1] it was under 1580 nM; in the experiment with Interferon-α [2], under 1 nM.
For `CCCCOc1nc(N)c2[nH]c(=O)n(CCC3CCCN(CC)C3)c2n1` (centres unmarked) [Example 30, 6-Amino-2-(butyloxy)-9-[2-(1-ethyl-3-piperidinyl)ethyl]-7,9-dihydro-8H-purin-8-one], in that order: over 1000 nM, under 1580 nM and under 10 nM.
Regarding `CCCCOc1nc(N)c2[nH]c(=O)n(CCCC3CCN(CC)CC3)c2n1` [Example 9], the results for the IC50 with IL-5 and with IL-13 were at most 8 nM and at most 40 nM, respectively. Further, the EC50 is over 1000 nM in the experiment on TNF-α, under 1580 nM in the experiment on Interferon-α [1] and under 10 nM in the experiment with Interferon-α [2].
On to `CCC[C@H](C)Oc1nc(N)c2[nH]c(=O)n(CCCCC3CCCN(CC)C3)c2n1` (stereo partly drawn) [Example 66, 6-Amino-9-[4-(1-ethyl-3-piperidinyl)butyl]-2-{[(1S)-1-methylbutyl]oxy}-7,9-dihydro-8H-purin-8-one], for which the EC50 with TNF-α is over 31.6 nM; with Interferon-α [1] it was under 1580 nM; in the experiment with Interferon-α [2] it was under 0.316 nM.
Regarding `CCCCOc1nc(N)c2[nH]c(=O)n(CCCCCC3CCNCC3)c2n1` [Example 122, 6-Amino-2-(butyloxy)-9-[5-(4-piperidinyl)pentyl]-7,9-dihydro-8H-purin-8-one], the EC50 in the experiment on TNF-α is over 31.6 nM; in the experiment with Interferon-α [1] it was under 1580 nM; in the experiment with Interferon-α [2], under 0.316 nM.
Taken in the same sequence, the figures for `CCC[C@H](C)Oc1nc(N)c2[nH]c(=O)n(CCC3CCCN(C(C)C)C3)c2n1` (stereo partly drawn) [Example 42, 6-Amino-2-{[(1S)-1-methylbutyl]oxy}-9-{2-[1-(1-methylethyl)-3-piperidinyl]ethyl}-7,9-dihydro-8H-purin-8-one] were over 31.6 nM, under 1580 nM and under 0.316 nM.
For `CCCCOc1nc(N)c2[nH]c(=O)n(CCCCC3CCN(CCC)CC3)c2n1` [Example 108, 6-Amino-2-(butyloxy)-9-[4-(1-propyl-4-piperidinyl)butyl]-7,9-dihydro-8H-purin-8-one], the values for the EC50 with TNF-α, with Interferon-α [1] and in the experiment on Interferon-α [2] were over 1000 nM, under 1580 nM and under 1 nM, respectively.
On to `CCCCOc1nc(N)c2[nH]c(=O)n(CC3CCCN(C(C)C)C3)c2n1` (centres unmarked) [Example 24, 6-Amino-2-(butyloxy)-9-{[1-(1-methylethyl)-3-piperidinyl]methyl}-7,9-dihydro-8H-purin-8-one], for which the EC50 was over 1000 nM in the experiment with TNF-α, under 1580 nM with Interferon-α [1] and under 100 nM with Interferon-α [2].

For the origin of these results see patent publication US8563717B2, “Adenine derivatives” (GlaxoSmithKline LLC, priority 2008, dated 2013).
